Laboratory results published in patent EP0049683A2, “Imidazo-rifamycines, process for their preparation, pharmaceutical preparations containing them and their use” (CIBA-GEIGY AG, priority 1980, dated 1982).
In brackets after ≈: the same amount, converted by molar mass.

What was measured:
Assay type in all cases: cell-based
[1] = tested on: Staphylococcus aureus 2999; test: Agar dilution MIC in DST agar (Ericsson and Sherris); conditions: for MIC: Staphylococcus aureus, 2999, in vitro, read-out: MIC Staph. 2999; for MIC Staph. 2999: in vitro
How it was run: (§1)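 Compounds are incorporated into agar at graded levels and the test strain is applied; the lowest concentration still suppressing its growth is recorded as the MIC in µg/ml.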

[2] = tested on: Staphylococcus aureus 10B; test: as above; conditions: in vitro; for MIC: Staphylococcus aureus, 10B, read-out: MIC Staph. 10B
How it was run: as §1

[3] = tested on: Pseudomonas aeruginosa K 799/61; test: as above; conditions: for MIC: Pseudomonas aeruginosa, K799/61, read-out: MIC Pseu. 799; for MIC Pseu. 799: in vitro, agar dilution, DST agar
How it was run: as §1

[4] = tested on: Salmonella Typhimurium 277; test: as above; conditions: in vitro; for MIC: Salmonella enterica, TYPHIMURIUM, read-out: MIC Salm. 277
How it was run: as §1

Proteus morganii 2359 = test: as above; conditions: for MIC: Morganella morganii, 2359, in vitro, read-out: MIC Prot. 2359; for MIC Prot. 2359: in vitro
How it was run: as §1

Proteus morganii 1518 = test: as above; conditions: for MIC: Morganella morganii, 1518, in vitro, read-out: MIC Prot. 1518; for MIC Prot. 1518: in vitro
How it was run: as §1

Escherichia coli 2018 = test: as above; conditions: for MIC: Escherichia coli, 2018, in vitro, read-out: MIC Esch. 2018; for MIC Esch. 2018: in vitro
How it was run: as §1

Escherichia coli 205 = test: as above; conditions: for MIC: Escherichia coli, 205, in vitro, read-out: MIC Esch. 205; for MIC Esch. 205: in vitro
How it was run: as §1

[5] = tested on: Mycobacterium tuberculosis; test: as above; conditions: in vitro; for MIC: Mycobacterium tuberculosis, read-out: MIC Myc. tub.
Staphylococcus aureus = test: In vitro antibacterial activity against gram-positive cocci; conditions: at (at or below) the lowest limit of the tested concentration range, 0,005 y/ml
Excerpt: (§2) Die neuen erfindungsgemässen Verbindungen der Formel I zeichnen sich vor allem durch ihre wertvollen pharmakologischen Eigenschaften aus: so besitzen sie gemäss den Resultaten in vitro antibiotische, insbesondere antibakterielle Eigenschaften, wie z.B. einerseits gegen grammpositive Kokken, wie Staphylococcus aureus, (im getesteten Konzentrationsbereich 0,005 bis 128 y/ml),andererseits gegen grammnegative Stäbchenbakterien, wie Enterobacteriaceae, z.B. Escherichia coli, Pseudomonas aeruginosa und Proteus morganii (im getesteten Konzentrationsbereich von 1 bis 64 y/ml), sowie gegen Mycobacterium tuberculosis (im getesteten Konzentrationsbereich von 0,48 bis 1,9 y/ml). […] (Für die Testresultate siehe auch Tabelle -1.)
(§3) Auch die neuen erfindungsgemässen Verbindungen der Formeln V und VI zeichnen sich durch analoge wertvolle pharmakologische Eigenschaften aus, d.h. sie besitzen gemäss den Resultaten in vitro antibiotische, insbesondere antibakterielle Eigenschaften, die sich bezüglich des Anwendungsbereichs sowie der getesteten effektiven Konzentrationen den Verbindungen der Formel I praktisch gleichen. […] (Für die Testresultate siehe auch Tabelle 2.)

[6] = tested on: Enterobacteriaceae, z.B. Escherichia coli, Pseudomonas aeruginosa und Proteus morganii; test: In vitro antibacterial activity against gram-negative rods; conditions: within the stated concentration range, 1 bis 64 y/ml
Excerpt: as §2, §3

| Molecule | MIC [1] [µg/mL] | MIC [2] [µg/mL] | MIC [3] [µg/mL] | MIC [4] [µg/mL] | MIC (Proteus morganii 2359) [µg/mL] | MIC (Proteus morganii 1518) [µg/mL] | MIC (Escherichia coli 2018) [µg/mL] | MIC (Escherichia coli 205) [µg/mL] | MIC [5] [µg/mL] | Hemmwirkung auf Staphylococcus aureus (Staphylococcus aureus) | Hemmung der Enterobacterien [6] | MIC Staph. 2999 [1] [µg/mL] | MIC Staph. 10B [2] [µg/mL] | MIC Pseu. 799 [3] [µg/mL] | MIC Salm. 277 [4] [µg/mL] | MIC Prot. 2359 (Proteus morganii 2359) [µg/mL] | MIC Prot. 1518 (Proteus morganii 1518) [µg/mL] | MIC Esch. 2018 (Escherichia coli 2018) [µg/mL] | MIC Esch. 205 (Escherichia coli 205) [µg/mL] | MIC Myc. tub. [5] [µg/mL] |
| --- | --- | --- | --- | --- | --- | --- | --- | --- | --- | --- | --- | --- | --- | --- | --- | --- | --- | --- | --- | --- |
| COC1C=COC2(C)Oc3c(C)c(O)c4c(O)c(c5nc(N6CCN(CC7CCCCC7)CC6)[nH]c5c4c3C2=O)NC(=O)C(C)=CC=CC(C)C(O)C(C)C(O)C(C)C(OC(C)=O)C1C (centres unmarked) [Verbindung 5, 4-(4-Cyclohexylmethyl-piperazinyl)-imidazolo[4,5-c]rifamycin SV] | 0.005 (≈ 0.00554 µM) | 0.005 (≈ 0.00554 µM) | 16 (≈ 17.7 µM) | 8 (≈ 8.87 µM) | 16 (≈ 17.7 µM) | 8 (≈ 8.87 µM) | 4 (≈ 4.43 µM) | 4 (≈ 4.43 µM) | 1.9 (≈ 2.11 µM) | – | – | – | – | – | – | – | – | – | – | – |
| 3-Thiomorpholinylmethylenamino-Rifamycin S [Verbindung 87] | – | – | – | – | – | – | – | – | – | deutliche Hemmwirkung | wirksam hemmen | – | – | – | – | – | – | – | – | – |
| COC1C=COC2(C)Oc3c(C)c(O)c4c(O)c(c5nc(N6CCOCC6)[nH]c5c4c3C2=O)NC(=O)C(C)=CC=CC(C)C(O)C(C)C(O)C(C)C(OC(C)=O)C1C (centres unmarked) [Verbindung 2, 4-Morpholino-imidazolo[4,5-c]rifamycin SV] | 0.005 (≈ 0.0062 µM) | 0.01 (≈ 0.0124 µM) | 8 (≈ 9.91 µM) | 32 (≈ 39.7 µM) | 4 (≈ 4.96 µM) | 4 (≈ 4.96 µM) | 16 (≈ 19.8 µM) | 16 (≈ 19.8 µM) | 1.9 (≈ 2.35 µM) | deutliche Hemmwirkung | wirksam hemmen | – | – | – | – | – | – | – | – | – |
| COC1C=COC2(C)Oc3c(C)c(O)c4c(O)c(c5nc(N(C)C)[nH]c5c4c3C2=O)NC(=O)C(C)=CC=CC(C)C(O)C(C)C(O)C(C)C(OC(C)=O)C1C (centres unmarked) [Verbindung 1, 4-Dimethylamino-imidazolo[4,5-c]rifamycin SV] | 0.005 (≈ 0.00654 µM) | 0.005 (≈ 0.00654 µM) | 2 (≈ 2.61 µM) | 16 (≈ 20.9 µM) | 8 (≈ 10.5 µM) | 4 (≈ 5.23 µM) | 4 (≈ 5.23 µM) | 8 (≈ 10.5 µM) | 0.97 (≈ 1.27 µM) | deutliche Hemmwirkung | wirksam hemmen | – | – | – | – | – | – | – | – | – |
| 3-(4-Methylpiperazinyl)-methylenamino-Rifamycin S [Verbindung 88] | – | – | – | – | – | – | – | – | – | deutliche Hemmwirkung | wirksam hemmen | – | – | – | – | – | – | – | – | – |
| 4-Pyrrolidinyl-imidazolo[4,5-c]rifamycin SV [Verbindung 19] | – | – | – | – | – | – | – | – | – | deutliche Hemmwirkung | wirksam hemmen | 0.005 | 0.005 | 8 | 8 | 4 | 4 | 4 | 2 | 0.48 |
| 4-[8-Aza-1,4-dioxaspiro-(4,5)-8-decyl]-imidazolo[4,5-c]-rifamycin SV [Verbindung 25] | – | – | – | – | – | – | – | – | – | – | – | 0.005 | 0.005 | 16 | 16 | 8 | 8 | 16 | 8 | 0.97 |
| COC1C=COC2(C)Oc3c(C)c(O)c4c(O)c(c5nc(N6CCN(CC(C)C)CC6)[nH]c5c4c3C2=O)NC(=O)C(C)=CC=CC(C)C(O)C(C)C(O)C(C)C(OC(C)=O)C1C (centres unmarked) [Verbindung 4, 4-(4-Isobutylpiperazinyl)-imidazolo[4,5-c]rifamycin SV] | 0.005 (≈ 0.0058 µM) | 0.005 (≈ 0.0058 µM) | 8 (≈ 9.28 µM) | 8 (≈ 9.28 µM) | 4 (≈ 4.64 µM) | 4 (≈ 4.64 µM) | 4 (≈ 4.64 µM) | 4 (≈ 4.64 µM) | 0.97 (≈ 1.13 µM) | deutliche Hemmwirkung | wirksam hemmen | – | – | – | – | – | – | – | – | – |
| CO[C@H]1/C=C/O[C@@]2(C)Oc3c(C)c(O)c4c(O)c(c5nc(N6CCN(Cc7ccccc7)CC6)[nH]c5c4c3C2=O)NC(=O)/C(C)=C\C=C\[C@H](C)[C@H](O)[C@@H](C)[C@@H](O)[C@@H](C)[C@H](OC(C)=O)[C@@H]1C [Verbindung 57, 4-(4-Benzylpiperazinyl)-imidazolo[4,5-c]rifamycin SV] | 0.005 (≈ 0.00558 µM) | 0.005 (≈ 0.00558 µM) | 16 (≈ 17.9 µM) | 16 (≈ 17.9 µM) | 4 (≈ 4.46 µM) | 4 (≈ 4.46 µM) | 4 (≈ 4.46 µM) | 8 (≈ 8.93 µM) | 0.97 (≈ 1.08 µM) | – | – | – | – | – | – | – | – | – | – | – |
| 3-(4-Phenylpiperazinyl)methylenamino-Rifamycin S [Verbindung 91] | – | – | – | – | – | – | – | – | – | deutliche Hemmwirkung | wirksam hemmen | – | – | – | – | – | – | – | – | – |
| 3-Indolinylmethylenamino-Rifamycin S [Verbindung 82] | – | – | – | – | – | – | – | – | – | deutliche Hemmwirkung | wirksam hemmen | – | – | – | – | – | – | – | – | – |
| CCN(CC)CCN(CC)c1nc2c([nH]1)c1c(O)c3c(O)c(C)c4c(c32)C(=O)[C@@](C)(O/C=C/[C@H](OC)[C@@H](C)[C@@H](OC(C)=O)[C@H](C)[C@H](O)[C@H](C)[C@@H](O)[C@@H](C)/C=C/C=C(/C)C(=O)N1)O4 [Verbindung 18, 4-[N-Ethyl-N-(2-diethylaminoethyl)-amino]-imidazolo-[4,5-c]rifamycin SV] | 0.005 (≈ 0.00579 µM) | 0.005 (≈ 0.00579 µM) | 8 (≈ 9.26 µM) | 16 (≈ 18.5 µM) | 2 (≈ 2.31 µM) | 4 (≈ 4.63 µM) | 4 (≈ 4.63 µM) | 2 (≈ 2.31 µM) | 0.48 (≈ 0.556 µM) | – | – | – | – | – | – | – | – | – | – | – |
| 4-(1-Perhydroazocinyl)-imidazolo[4,5-c]rifamycin SV [Verbindung 28] | – | – | – | – | – | – | – | – | – | – | – | 0.005 | 0.005 | 8 | 16 | 2 | 2 | 4 | 4 | 0.97 |
| CO[C@H]1/C=C/O[C@@]2(C)Oc3c(C)c(O)c4c(O)c(c5nc(N6CCN(CC7CC7)CC6)[nH]c5c4c3C2=O)NC(=O)/C(C)=C\C=C\[C@H](C)[C@H](O)[C@@H](C)[C@@H](O)[C@@H](C)[C@H](OC(C)=O)[C@@H]1C [Verbindung 54, 4-(4-Cyclopropylmethylpiperazinyl)-imidazolo[4,5-c]rifamycin SV] | 0.005 (≈ 0.00581 µM) | 0.005 (≈ 0.00581 µM) | 16 (≈ 18.6 µM) | 32 (≈ 37.2 µM) | 8 (≈ 9.3 µM) | 8 (≈ 9.3 µM) | 8 (≈ 9.3 µM) | 8 (≈ 9.3 µM) | – | – | – | – | – | – | – | – | – | – | – | – |
| COC1C=COC2(C)Oc3c(C)c(O)c4c(O)c(c5nc(N(C)C6CCCC6)[nH]c5c4c3C2=O)NC(=O)C(C)=CC=CC(C)C(O)C(C)C(O)C(C)C(OC(C)=O)C1C (centres unmarked) [Verbindung 10, 4-(N-Cyclopentyl-N-methylamino)-imidazolo[4,5-c]rifamycin SV] | 0.005 (≈ 0.00611 µM) | 0.005 (≈ 0.00611 µM) | 8 (≈ 9.77 µM) | 16 (≈ 19.5 µM) | 4 (≈ 4.88 µM) | 4 (≈ 4.88 µM) | 4 (≈ 4.88 µM) | 4 (≈ 4.88 µM) | – | – | – | – | – | – | – | – | – | – | – | – |
